Source: paper PMC5071873, “The Effects of Puerarin on Rat Ventricular Myocytes and the Potential Mechanism” (Scientific Reports, 2016)

Assays:
Assay type in all cases: cell-based
Kv7.1 = target: T1, Kv7.1 (Homo sapiens, UniProt P51787); assay: Single-channel inside-out patch clamp recording of Kv7.1; conditions: puerarin 100 μM, inside-out, intracellular side
T1 construct: expressed in transfected cells; host or cells: HEK293
Protocol: The Tyrode’s solution contained (mM): 126 NaCl, 5.4 KCl, 1.8 CaCl2, 1 MgCl2, 0.33 NaH2PO4, 10 HEPES and 10 glucose, pH 7.4 (adjusted with NaOH). The Ca^2+-free Tyrode’s solution was prepared by removing CaCl2 from the Tyrode’s solution. The Kreb’s solution used for cell storage contained (mM): 70 glutamic acid, 30 KCl, 15 taurine, 0.5 MgCl2, 10 KH2PO4, 0.5 EGTA, 10 HEPES, 10 glucose, and 1% albumin, pH 7.4 (adjusted with KOH). The enzyme solution used for the rat cardiomyocyte isolation contained 0.08 g/L collagenase (type II) and 1.0 g/L BSA in Kreb’s solution. For action potential recording on cardiomyocyte, the pipette solution contained (mM): 100 potassium aspartate, 30 KCl, 1 MgCl2, 5 Mg-ATP, 5 EGTA, 5 HEPES, pH 7.3 (adjusted with KOH); the Tyrode’s solution was used as the standard bath solution. For whole-cell recording of IKs on myocytes, the pipette solution contained (mM): 125 potassium aspartate, 20 KCl, 1 MgCl2, 5 Mg-ATP, 10 EGTA, 5 HEPES, pH 7.3 (adjusted with KOH); the bath solution contained (mM): 132 NaCl, 4 KCl, 1.8 CaCl2, 1.2 MgCl2, 10 HEPES, 5 glucose, pH 7.4 (adjusted with NaOH). […]
Single-channel activity was recorded at a series of holding levels ranging from 10 mV of 50 mV. […] Single-channel events were listed and analysed by pclampfit 9.0 (single-channel search-in-analyse function). […]

Kir2.1 = target: T2, Kir2.1 (Homo sapiens, UniProt P63252); assay: Whole-cell patch clamp of Kir2.1 currents (ramp voltage protocol) in transfected HEK293 cells
T2 construct: expressed in transfected cells; host or cells: HEK293
T2 sequence (P63252 1-427): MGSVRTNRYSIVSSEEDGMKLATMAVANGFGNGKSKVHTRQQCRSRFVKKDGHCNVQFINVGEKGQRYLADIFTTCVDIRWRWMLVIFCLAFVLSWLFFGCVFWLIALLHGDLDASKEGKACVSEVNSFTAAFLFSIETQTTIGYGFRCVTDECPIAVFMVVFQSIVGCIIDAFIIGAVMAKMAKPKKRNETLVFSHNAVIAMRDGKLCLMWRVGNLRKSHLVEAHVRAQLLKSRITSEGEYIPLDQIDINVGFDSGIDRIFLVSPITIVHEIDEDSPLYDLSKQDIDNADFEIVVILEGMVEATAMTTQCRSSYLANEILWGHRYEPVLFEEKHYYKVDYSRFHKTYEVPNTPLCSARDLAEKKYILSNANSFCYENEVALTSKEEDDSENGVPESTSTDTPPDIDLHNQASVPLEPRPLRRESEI
Protocol: The Tyrode’s solution contained (mM): 126 NaCl, 5.4 KCl, 1.8 CaCl2, 1 MgCl2, 0.33 NaH2PO4, 10 HEPES and 10 glucose, pH 7.4 (adjusted with NaOH). The Ca^2+-free Tyrode’s solution was prepared by removing CaCl2 from the Tyrode’s solution. The Kreb’s solution used for cell storage contained (mM): 70 glutamic acid, 30 KCl, 15 taurine, 0.5 MgCl2, 10 KH2PO4, 0.5 EGTA, 10 HEPES, 10 glucose, and 1% albumin, pH 7.4 (adjusted with KOH). The enzyme solution used for the rat cardiomyocyte isolation contained 0.08 g/L collagenase (type II) and 1.0 g/L BSA in Kreb’s solution. For action potential recording on cardiomyocyte, the pipette solution contained (mM): 100 potassium aspartate, 30 KCl, 1 MgCl2, 5 Mg-ATP, 5 EGTA, 5 HEPES, pH 7.3 (adjusted with KOH); the Tyrode’s solution was used as the standard bath solution. For whole-cell recording of IKs on myocytes, the pipette solution contained (mM): 125 potassium aspartate, 20 KCl, 1 MgCl2, 5 Mg-ATP, 10 EGTA, 5 HEPES, pH 7.3 (adjusted with KOH); the bath solution contained (mM): 132 NaCl, 4 KCl, 1.8 CaCl2, 1.2 MgCl2, 10 HEPES, 5 glucose, pH 7.4 (adjusted with NaOH). 3 μM nifedipine and 5 μM E-4031 were used to block the calcium current and IKr, respectively. For whole-cell recording on HEK-293 cells, the pipette solution contained (mM): 140 KCl, 2 MgCl2, 10 HEPES, 0.1 EGTA, 4 K2-ATP, pH 7.3 (adjusted with KOH); the bath solution contained (mM): 120 NaCl, 5 KCl, 1.5 CaCl2, 1 MgCl2, 10 HEPES, 10 glucose, pH 7.4 (adjusted with NaOH). For single-channel recording, the pipette solution (extracellular) contained (mM): 145 KCl, 10 HEPES, 10 glucose, pH 7.4 (adjusted with KOH); the bath solution (intracellular) contained (mM): 145 KCl, 1.2 MgCl2, 10 HEPES, 0.1 EGTA, pH 7.38 (adjusted with KOH).
Cell suspensions were transferred into a chamber on the stage of a Nikon Eclipse Ti inverted microscope (Tokyo, Japan). The whole-cell recordings were performed using isolated single ventricular myocytes. Patch electrodes were pulled from a horizontal microelectrode puller (P-1000, Sutter Instrument Co, USA) and fire polished to final tip resistance of 4.0–8.0 MΩ when filled with internal solutions. Signals were amplified with an Axopatch 200B amplifier (Axon Instruments, USA) and filtered at 1 kHz. The pCLAMP 9.0 software was used to generate current and voltage clamp protocols, acquire data, and analyse the current traces. The whole-cell series resistance was compensated to more than 80%. All of the experiments were performed at room temperature (22 ± 1 °C). The whole-cell IK1 was elicited by a ramp voltage protocol from −140 to + 40 mV in 1 s, or at a 0 mV holding potential to test potentials from −140 to + 40 mV in 10 mV increments. The IK1 was calculated as the difference between the peak inward current and the holding current level. The whole-cell Kv7.1/IKs were elicited from a −30 mV holding potential to test potentials from −80 to + 40 mV in 10 mV increments.
Human Kir2.1 cDNA, Kir2.3 cDNA, Kv7.1 cDNA and KCNE1 cDNA, was cloned in Human Embryonic Kidney 293 cells, respectively. In some cases, Kv7.1 cDNA and KCNE1 cDNA were simultaneously cloned in Human Embryonic Kidney 293 cells.

intracellular cAMP = assay: Mouse/Rat cAMP assay in rat cardiomyocytes; conditions: puerarin 1 mM
Protocol: cAMP levels were measured in rat cardiomyocytes using a Mouse/Rat cAMP kit (cAMP parameter assay kit, R&D Systems) according to the manufacturer’s instructions. The assay is based on the competitive binding technique. A streptavidin-coated plate is incubated with a biotinylated monoclonal antibody specific for cAMP. Following a wash to remove excess monoclonal antibody, cAMP present in a sample competes with a fixed amount of horseradish peroxidase (HRP)-labeled cAMP for sites on the monoclonal antibody. This is followed by another wash to remove excess conjugate and unbound sample. A substrate solution is added to the wells to determine the bound enzyme activity. The color development is stopped and the absorbance is read at 450 nm. The intensity of the color is inversely proportional to the concentration of cAMP in the sample. The level of cAMP in the sample was determined based on a standard curve and expressed as pmol/mg per each sample. Normalized cAMP was calculated by compared with the control group. In our study, we investigate the effect of puerarin on intracellular cAMP concentration and its effect upon the increase of cAMP induced by isoproterenol, forskolin and 8-Br-cAMP.

O=c1c(-c2ccc(O)cc2)coc2c([C@@H]3O[C@H](CO)[C@@H](O)[C@H](O)[C@H]3O)c(O)ccc12 [Puerarin, 8-c-glucoside of daidzein]
open probability of Kv7.1 channel (Kv7.1): significantly reduced | effect on Kir2.1 currents at low concentrations (Kir2.1; 10 μM, 1 mM (so in the source)): little effect | saturation dosage, inhibition of Kir2.1 (Kir2.1; HEK293): 50 mM | maximal inhibitory effect upon Kir2.1 (Kir2.1; HEK293, n = 5 each point): 53.11 ± 1.84% | IC50 (Kir2.1; HEK293, non-linear Hill fit, n = 5 each point, read-out: IC50, inhibition of Kir2.1 currents): 1270 µM | Hill coefficient, inhibition of Kir2.1 (Kir2.1; non-linear Hill fit): 0.990 | effect upon the increase of cAMP induced by isoproterenol, forskolin (intracellular cAMP; rat cardiac myocytes): no effect | effect on intracellular cAMP concentration (intracellular cAMP; rat cardiac myocytes (text: also HEK293 transfected Kv7.1/IKs)): no effect
